The results in this text go back to paper PMC6528642, “Myo‐inositol‐1‐phosphate synthase (Ino‐1) functions as a protection mechanism in Corynebacterium glutamicum under oxidative stress” (MicrobiologyOpen, 2018).

The assay concerns the target T1, Ino-1 (Corynebacterium glutamicum, UniProt Q8NLE6).
T1 construct: His6-tagged (pXMJ19-His6-ino-1), homologous expression in C. glutamicum delta-ino-1, Ni-NTA
Kind of assay: intrinsic protein fluorescence quenching (Ex […] nm, Em […] nm). Type of assay: binding. To be noted: read-out: apparent K D.

T1 sequence (Q8NLE6 whole entry): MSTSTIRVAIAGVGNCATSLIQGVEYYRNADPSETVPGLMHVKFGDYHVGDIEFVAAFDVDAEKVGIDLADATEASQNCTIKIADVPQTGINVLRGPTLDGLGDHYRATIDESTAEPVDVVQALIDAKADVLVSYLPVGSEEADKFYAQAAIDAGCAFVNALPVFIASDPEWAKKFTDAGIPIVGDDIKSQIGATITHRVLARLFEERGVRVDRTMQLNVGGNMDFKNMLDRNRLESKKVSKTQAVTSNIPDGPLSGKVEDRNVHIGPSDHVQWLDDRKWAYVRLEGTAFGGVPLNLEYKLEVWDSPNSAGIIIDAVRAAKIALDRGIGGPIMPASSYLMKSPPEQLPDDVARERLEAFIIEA

On to `NC(=O)c1ccc[n+]([C@@H]2O[C@H](COP(=O)(O)OP(=O)(O)OC[C@H]3O[C@@H](n4cnc5c(N)ncnc54)[C@H](O)[C@@H]3O)[C@@H](O)[C@H]2O)c1` [NAD^+], for which the Kd was determined as 4.7 ± 0.8 µM.
